Assay results from patent US10301272B2, “Carboxamide or sulfonamide substituted thiazoles and related derivatives as modulators for the orphan nuclear receptor ROR[γ]” (Phenex Pharmaceuticals AG, priority 2012, dated 2019).
Read-outs that look alike come from different tables or passages of the source.

Assays:
RORγ = RORγ (Homo sapiens, UniProt P51449); test: RORγ Gal4 Reporter Gene Assay; format: cell-based; conditions: for IC50: 293T cells
In short: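 Cells at 5×10^5/well were transfected with RORγ fragments fused to the GAL4 DNA-binding domain (CMV promoter), a 5×GAL4-site firefly luciferase reporter and CMV-Renilla luciferase for normalization. About 4 h later serum-free MEM and compound were added (vehicle ≤0.1%). Cultures at 37 °C, 5% CO2; at least triplicates.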

[1] = target: RORγ ligand binding domain (LBD) (Homo sapiens (Human), UniProt P51449); test: TR-FRET Activity Assay (ligand sensing assay, LANCE); conditions: for pIC50 (FRET): TR-FRET, interaction of RORγ-LBD with coactivator peptide
Description: The ligand-binding domain (LBD) of RORγ was expressed as fusion protein with GST in BL-21 (BL3) cells using the vector pDEST15. Cells were lysed by lysozyme-treatment and sonication, and the fusion proteins purified over glutathione sepharose (Pharmacia) according to the manufacturers instructions. For screening of compounds for their influence on the RORγ-peptide interaction, the LANCE technology (Perkin Elmer) was applied. This method relies on the binding dependent energy transfer from a donor to an acceptor fluorophor attached to the binding partner of interest. For ease of handling and reduction of background from compound fluorescence LANCE technology makes use of generic fluorophore labels and time resolved detection assays were done in a final volume of 25 μL in a 384 well plate, in a Tris-based buffer system (20 mM Tris-HCl pH 6.8; 60 mM KCl, 1 mM DTT; 5 mM MgCl2; 35 ng/μL BSA), containing 20-60 ng/well recombinantly expressed RORγ-LBD fused to GST, 200-600 nM N-terminally biotinylated peptide, 200 ng/well Streptavidin-xlAPC conjugate (Prozyme) and 6-10 ng/well Eu W1024-antiGST (Perkin Elmer). DMSO content of the samples was kept at 1%.
After generation of the Tris-based buffer system, the potentially RORγ modulating ligands were diluted. […] The LANCE signal was detected by a Perkin Elmer EnVision™ Multilabel Counter. […] Ligands that promote the complex formation induce a concentration-dependent increase in time-resolved fluorescent signal.
Y is the response. Y starts at Bottom and goes to Top with a sigmoidal shape.
This is identical to the “four parameter logistic equation”. The IC50 values are calculated using this equation.

[2] = firefly (FF) luciferase, read-out: pIC50 (FF) (converted)
[3] = renilla normalised (RENnorm) luciferase, read-out: pIC50 (REN) (converted)

Chain of RORγ (P51449 whole entry, looked up, the tested form may be a part): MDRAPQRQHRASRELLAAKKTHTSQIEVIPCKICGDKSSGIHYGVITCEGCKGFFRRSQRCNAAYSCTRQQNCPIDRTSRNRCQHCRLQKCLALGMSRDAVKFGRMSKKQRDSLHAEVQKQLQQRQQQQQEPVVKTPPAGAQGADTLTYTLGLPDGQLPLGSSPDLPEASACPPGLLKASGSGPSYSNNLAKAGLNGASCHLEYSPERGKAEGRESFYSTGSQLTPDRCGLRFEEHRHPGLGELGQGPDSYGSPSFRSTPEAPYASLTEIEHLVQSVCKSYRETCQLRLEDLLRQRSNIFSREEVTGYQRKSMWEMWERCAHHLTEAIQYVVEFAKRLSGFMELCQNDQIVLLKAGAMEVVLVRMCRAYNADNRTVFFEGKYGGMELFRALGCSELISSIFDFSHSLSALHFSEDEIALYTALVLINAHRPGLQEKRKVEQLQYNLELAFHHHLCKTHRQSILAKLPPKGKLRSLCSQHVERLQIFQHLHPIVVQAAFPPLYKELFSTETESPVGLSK
Chain of RORγ ligand binding domain (LBD) (P51449 269-508): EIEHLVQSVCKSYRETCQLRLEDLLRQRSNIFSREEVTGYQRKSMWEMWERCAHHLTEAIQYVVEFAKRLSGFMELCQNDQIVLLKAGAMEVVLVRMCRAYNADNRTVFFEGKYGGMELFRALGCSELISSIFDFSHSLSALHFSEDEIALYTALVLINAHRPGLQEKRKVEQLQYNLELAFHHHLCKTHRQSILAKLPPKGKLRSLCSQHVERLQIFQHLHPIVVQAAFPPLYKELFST

| SMILES | pIC50 (FF) (RORγ) | pIC50 (REN) (RORγ) | pIC50 (FRET) [1] | IC50 (RORγ; [2]) | IC50 (RORγ; [3]) | IC50 [1] |
| --- | --- | --- | --- | --- | --- | --- |
| CC(C)(O)c1cc(-c2sc(C(=O)N[C@H]3C[C@H](C(=O)O)C3)nc2CC2CCCCC2)cc(C2(C)CC2)c1 [9/4] | 6.5/7.1/7.1 | 6.5/7.1/7.1 | 6.5/7.1/7.1 |  |  |  |
| CC(C)(C)c1cc(-c2sc(C(N)=O)nc2CC2CCCCC2)cc(C(C)(C)C)c1 [Example 5, 4-(Cyclohexylmethyl)-5-(3,5-di-tert-butylphenyl)thiazole-2-carboxamide] | 6.7/6.3/6.1 | 6.7/6.3/6.1 | 6.7/6.3/6.1 |  |  |  |
| CC(C)(C)c1cc(-c2nc(C(N)=O)ncc2CC2CCCCC2)cc(C(C)(C)C)c1 [Example 206, 5-(Cyclohexylmethyl)-4-(3,5-di-tert-butylphenyl)pyrimidine-2-carboxamide] | 5.9/6.3/6.2 | 5.9/6.3/6.2 | 5.9/6.3/6.2 |  |  |  |
| CC1(c2cc(-c3sc(C(=O)N[C@H]4C[C@H](C(=O)O)C4)nc3CC3CCCCC3)cc(C(F)(F)F)c2)CC1 [9/8] | 6.5/7.1/7.1 | 6.5/7.1/7.1 | 6.5/7.1/7.1 |  |  |  |
| CC(C)(C)NS(=O)(=O)c1ccc(-c2sc(C(=O)N3CC4(CC[S+]([O-])CC4)C3)nc2CC2CCCCC2)c2ccccc12 [15/9] | 6.4/7.8/7.9 | 6.4/7.8/7.9 | 6.4/7.8/7.9 |  |  |  |
| NS(=O)(=O)c1c(Cl)cc(-c2sc(C(=O)NC3CCOCC3)nc2CC2CCCCC2)cc1C(F)(F)F [Example 17/1] | 5.6/6.1/6.5 | 5.6/6.1/6.5 | 5.6/6.1/6.5 |  |  |  |
| COC(c1nc(C(=O)NC2CCOCC2)sc1-c1ccc(S(=O)(=O)NC(C)(C)C)c(C(C)(C)C)c1)C1CCCCC1 (stereo not drawn) [Example 19/1] | 6.1/6.7/6.7 | 6.1/6.7/6.7 | 6.1/6.7/6.7 |  |  |  |
| CCCc1nc(C(=O)NC2CCS(=O)(=O)CC2)sc1-c1ccc(S(=O)(=O)NC(C)(C)C)c(Cl)c1Cl [300/5] | 7.0/7.4/7.5 | 7.0/7.4/7.5 | 7.0/7.4/7.5 |  |  |  |
| CC(C)(C)NS(=O)(=O)c1ccc(-c2sc(C(=O)N[C@H]3C[C@H](S(C)(=O)=O)C3)nc2CC2CCCCC2)c(Cl)c1Cl [6/41] | 7.3/8.0/8.2 | 7.3/8.0/8.2 | 7.3/8.0/8.2 |  |  |  |
| CC(C)(O)CNC(=O)c1nc(CC2CCCCC2)c(-c2ncc(S(=O)(=O)NC(C)(C)C)c3ccccc23)s1 [19/6] | 6.4/7.7/7.7 | 6.4/7.7/7.7 | 6.4/7.7/7.7 |  |  |  |
| CC1(C)COCCN1Cc1ccc(-c2sc(C(=O)NC3CCS(=O)(=O)CC3)nc2CC2CCCCC2)c2ccccc12 [7/26] | 6.8/7.7/7.9 | 6.8/7.7/7.9 | 6.8/7.7/7.9 |  |  |  |
| CC(C)(C)NS(=O)(=O)c1ccc(-c2sc(C(=O)NC3CSC3)nc2CC2CCCCC2)cc1C(C)(C)O [6/24] | 7.3/7.9/8.0 | 7.3/7.9/8.0 | 7.3/7.9/8.0 |  |  |  |
| CCNS(=O)(=O)c1ccc(-c2sc(C(=O)NCC(C)(C)O)nc2CC2CCCCC2)c(Cl)c1Cl [Example 18, 4-(Cyclohexylmethyl)-5-(2,3-dichloro-4-(N-ethylsulfamoyl)phenyl)-N-(2-hydroxy-2-methylpropyl)thiazole-2-carboxamide] | 6.9/8.1/8.0 | 6.9/8.1/8.0 | 6.9/8.1/8.0 |  |  |  |
| CC(C)(C)NS(=O)(=O)c1ccc(-c2oc(C(=O)N3CC4(CCS(=O)(=O)CC4)C3)nc2CC2CCCCC2)c2ccccc12 [100/9] | 6.3/8.5/8.5 | 6.3/8.5/8.5 | 6.3/8.5/8.5 |  |  |  |
| O=C(NC1CCS(=O)(=O)CC1)c1nc(CC2CCCCC2)c(-c2ccc(N3CCOCC3)c3ccccc23)s1 [7/27] | 6.5/6.9/6.9 | 6.5/6.9/6.9 | 6.5 |  |  |  |
| CC(C)(C)NS(=O)(=O)c1ccc(-c2sc(C(=O)NC34CC(C(=O)O)(C3)C4)nc2CC2CCCCC2)c(Cl)c1Cl [6/38] | 6.8/7.8/7.9 | 6.8/7.8/7.9 | 6.8/7.8/7.9 |  |  |  |
| CC(C)(C)NS(=O)(=O)c1ccc(-c2sc(C(=O)N[C@H]3C[C@H](C(=O)O)C3)nc2CC2CCCCC2)c2c1CCC2 [9/11] | 6.6/8.5/8.5 | 6.6/8.5/8.5 | 6.6/8.5/8.5 |  |  |  |
| CC(C)(C)NS(=O)(=O)c1ccc(-c2sc(C(=O)NC3CCS(=O)(=O)CC3)nc2CC2CC2)c(Cl)c1Cl [6/35] | 7.0/7.5/7.5 | 7.0/7.5/7.5 | 7.0/7.5/7.5 |  |  |  |
| COCC(C)(C)NS(=O)(=O)c1ccc(-c2sc(C(=O)N3CC4(CCS(=O)(=O)CC4)C3)nc2CC2CCCCC2)c2ccccc12 [14/2] | 6.5/7.4/7.4 | 6.5/7.4/7.4 | 6.5/7.4/7.4 |  |  |  |
| CC(C)(C)NS(=O)(=O)c1ccc(-c2sc(NS(C)(=O)=O)nc2CC2CCCCC2)cc1C(F)(F)F [Example 201, N-(tert-Butyl)-4-(4-(cyclohexylmethyl)-2-(methylsulfonamido)thiazol-5-yl)-2-(trifluoromethyl)benzenesulfonamide] | 6.0/6.5/6.6 | 6.0/6.5/6.6 | 6.0/6.5/6.6 |  |  |  |
| CN(C(=O)c1nc(CC2CCCCC2)c(-c2ccc(S(=O)(=O)NC(C)(C)C)c3ccccc23)o1)C1CCOCC1 [100/4] | 6.6/7.1/7.3 | 6.6/7.1/7.3 | 6.6/7.1/7.3 |  |  |  |
| CC(C)(C)NS(=O)(=O)c1ccc(-c2sc(C(=O)NCCN3CCOCC3)nc2CC2CCCCC2)cc1C(C)(C)O [6/25] | 5.8/6.7/6.7 | 5.8/6.7/6.7 | 5.8/6.7/6.7 |  |  |  |
| CC(C)(O)c1cc(-c2sc(C(=O)N[C@H]3C[C@@H](C(=O)O)C3)nc2CC2CCCCC2)cc(C2(C)CC2)c1 [9/10] | 6.3/7.2/7.2 | 6.3/7.2/7.2 | 6.3/7.2/7.2 |  |  |  |
| COc1ccc(-c2sc(C(=O)N[C@H]3C[C@H](C(=O)O)C3)nc2CC2CCCCC2)c2ccccc12 [7/20] |  |  |  | 251 nM | 251 nM | > 20000 nM |
| CC(C)(O)CNC(=O)c1nc(CC2CCC2)c(-c2ccc(S(=O)(=O)NC(C)(C)C)c(Cl)c2Cl)s1 [Example 21, 5-(4-(N-(tert-butyl)sulfamoyl)-2,3-dichlorophenyl)-4-(cyclobutylmethyl)-N-(2-hydroxy-2-methylpropyl)thiazole-2-carboxamide] | 7.0/8.1/8.2 | 7.0/8.1/8.2 | 7.0/8.1/8.2 |  |  |  |
| CNC(=O)C(C)(C)CCNC(=O)c1nc(CC2CCCCC2)c(-c2ccc(S(=O)(=O)NC(C)(C)C)c(C(F)(F)F)c2)s1 [Example 10/1] | 6.2/7.0/7.1 | 6.2/7.0/7.1 | 6.2/7.0/7.1 |  |  |  |
| O=C(N[C@H]1C[C@H](C(=O)O)C1)c1nc(CC2CCCCC2)c(-c2ccc(OC(F)(F)F)c3ccccc23)s1 [7/21] |  |  |  | 126 nM | 126 nM | 2000 nM |
| CC(C)(C)c1cc(-c2sc(C(=O)N[C@H]3C[C@H](C(=O)O)C3)nc2CC2CCCCC2)cc(C(C)(C)C)[n+]1[O-] [8/9] |  |  |  | 126 nM | 126 nM | 794 nM |
| CC(C)(C)NS(=O)(=O)c1ccc(-c2oc(C(=O)N3CC4(CCSCC4)C3)nc2CC2CCCCC2)c2ccccc12 [100/11] | 6.8/7.1/7.3 | 6.8/7.1/7.3 | 6.8/7.1/7.3 |  |  |  |
